According to PMC4490768 (Cellular signalling, 2011):

Biological target: T1, ALK2ca T283S (constitutively active ALK2) (Homo sapiens, UniProt Q04771, Q207D/T283S)
T1 sequence (Q04771 21-509 Q207D/T283S): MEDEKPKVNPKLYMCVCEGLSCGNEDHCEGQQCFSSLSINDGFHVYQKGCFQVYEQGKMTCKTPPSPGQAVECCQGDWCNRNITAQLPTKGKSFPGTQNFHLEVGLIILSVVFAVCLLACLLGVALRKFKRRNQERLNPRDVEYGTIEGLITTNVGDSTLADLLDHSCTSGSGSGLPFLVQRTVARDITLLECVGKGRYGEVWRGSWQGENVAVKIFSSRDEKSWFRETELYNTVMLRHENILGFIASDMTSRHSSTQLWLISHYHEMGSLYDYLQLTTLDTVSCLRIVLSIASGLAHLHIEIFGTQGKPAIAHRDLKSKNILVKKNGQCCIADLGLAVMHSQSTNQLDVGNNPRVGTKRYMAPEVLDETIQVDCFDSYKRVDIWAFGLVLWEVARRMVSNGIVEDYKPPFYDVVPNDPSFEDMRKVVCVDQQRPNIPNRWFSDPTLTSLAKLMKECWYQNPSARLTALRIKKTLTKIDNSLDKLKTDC
Experiment: BRE2-luc luciferase reporter in NIH-3T3 cells expressing ALK2ca T283S
Format: cell-based

SMILES: NC(=O)c1ccc(-c2nc(-c3ccc4c(c3)OCO4)c(-c3ccccn3)[nH]2)cc1 [SB431542]
- EC50: 2.5 µM
